Measurements: publication PMC6294172 (Stem Cell Reports, 2018)
One block for each molecule: values may come before it.

How the values were obtained:
CES2 = biological target: T1, CES2 (Homo sapiens, UniProt O00748); experiment: CES2 activity in hiPS-SIECs with fluorescein diacetate substrate; settings: 1 mM loperamide, 10 μM fluorescein diacetate substrate
T1 sequence (O00748 27-559): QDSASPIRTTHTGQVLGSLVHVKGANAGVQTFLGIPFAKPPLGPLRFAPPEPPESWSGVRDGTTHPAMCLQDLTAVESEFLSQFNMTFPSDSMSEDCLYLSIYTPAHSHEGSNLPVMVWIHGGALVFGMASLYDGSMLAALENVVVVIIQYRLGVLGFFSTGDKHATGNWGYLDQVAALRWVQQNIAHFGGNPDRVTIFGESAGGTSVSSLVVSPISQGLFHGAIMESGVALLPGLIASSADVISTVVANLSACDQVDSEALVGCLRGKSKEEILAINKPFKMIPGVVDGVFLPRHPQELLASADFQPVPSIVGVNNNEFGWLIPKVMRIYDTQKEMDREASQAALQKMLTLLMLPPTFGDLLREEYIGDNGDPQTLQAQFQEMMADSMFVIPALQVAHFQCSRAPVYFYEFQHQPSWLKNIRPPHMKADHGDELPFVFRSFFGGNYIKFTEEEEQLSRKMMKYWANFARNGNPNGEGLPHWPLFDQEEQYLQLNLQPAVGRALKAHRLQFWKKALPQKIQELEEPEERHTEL

PEPT1 [1] = biological target: T2, PEPT1 (Homo sapiens, UniProt P46059); experiment: Peptide-uptake analysis of D-Ala-Leu-Lys-AMCA in hiPS-SIECs; assay type: cell-based; settings: 100 μM captopril, 25 μM D-Ala-Leu-Lys-AMCA for 4 hr
T2 sequence (P46059 1-708): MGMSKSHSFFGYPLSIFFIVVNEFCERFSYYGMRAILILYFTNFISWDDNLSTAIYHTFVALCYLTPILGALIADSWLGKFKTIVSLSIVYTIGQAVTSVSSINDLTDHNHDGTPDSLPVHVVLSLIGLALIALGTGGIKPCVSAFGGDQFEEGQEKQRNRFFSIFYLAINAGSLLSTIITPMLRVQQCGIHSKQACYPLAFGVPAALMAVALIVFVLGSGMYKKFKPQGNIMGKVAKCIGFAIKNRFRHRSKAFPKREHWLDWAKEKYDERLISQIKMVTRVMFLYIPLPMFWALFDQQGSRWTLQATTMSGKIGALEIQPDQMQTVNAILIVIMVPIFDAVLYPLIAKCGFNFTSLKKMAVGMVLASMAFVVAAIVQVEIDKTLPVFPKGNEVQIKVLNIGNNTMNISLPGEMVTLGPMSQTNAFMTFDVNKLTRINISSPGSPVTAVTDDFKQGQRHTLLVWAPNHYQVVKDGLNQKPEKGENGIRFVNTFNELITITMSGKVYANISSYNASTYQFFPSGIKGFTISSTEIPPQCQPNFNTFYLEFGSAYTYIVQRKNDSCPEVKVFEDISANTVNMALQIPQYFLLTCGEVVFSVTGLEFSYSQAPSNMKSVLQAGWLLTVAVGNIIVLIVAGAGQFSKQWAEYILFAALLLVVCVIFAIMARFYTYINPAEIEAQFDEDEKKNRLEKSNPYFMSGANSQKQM

PEPT1 [2] = biological target: T2, PEPT1; experiment: PEPT1 permeability test with glycylsarcosine across hiPS-SIECs monolayer; assay type: in vitro ADME; settings: apical to basolateral, 100 μM captopril
[3] = tested on: neonatal rat small intestinal epithelial cells; settings: ref Booth et al., 1995; Leeper et al., 1998; McDonald and Henning, 1992; cited from earlier work
[4] = tested on: small intestinal epithelial cells; settings: ref Booth et al., 1995; Leeper et al., 1998; McDonald and Henning, 1992; cited from earlier work
hiPS-SIECs monolayer [5] = experiment: TEER measurement of hiPS-SIECs monolayer; assay type: cell-based, human; settings: 10 mM C10, hiPS-SIECs monolayer
hiPS-SIECs monolayer [6] = experiment: LY and FD4 permeability tests across hiPS-SIECs monolayer; settings: treatment with C10, hiPS-SIECs monolayer
JAK/STAT signals = settings: ref Liu et al., 2011; cited from earlier work
[7] = tested on: human iPSC (Tic)-derived definitive endoderm cells; experiment: Intestinal progenitor cell differentiation; assay type: cell-based; settings: 4 days
[8] = tested on: human iPSC (Tic)-derived definitive endoderm cells; experiment: CDX2 protein expression by western blotting; assay type: cell-based; settings: 4 days treatment
[9] = tested on: human iPSC-derived intestinal progenitor cells; experiment: Percentage of CDX2-positive cells by FACS analysis; assay type: cell-based; settings: LY2090314-treated cells
[10] = 20 nM, compared with definitive endoderm cells (DECs)

CES2 activity in the hiPS-SIECs (CES2): significantly inhibited
Molecule: CN(C)C(=O)C(CCN1CCC(O)(c2ccc(Cl)cc2)CC1)(c1ccccc1)c1ccccc1 [loperamide]

uptake of D-Ala-Leu-Lys-AMCA in presence of inhibitor (PEPT1 [1]): inhibited | Papp value of glycylsarcosine (PEPT1 [2]): significantly decreased
Molecule: C[C@H](CS)C(=O)N1CCC[C@H]1C(=O)O [captopril]

CYP3A4 expression levels (CYP3A4): increased
Molecule: C=C1/C(=C\C=C2/CCC[C@]3(C)[C@@H]([C@H](C)CCCC(C)(C)O)CC[C@@H]23)C[C@@H](O)C[C@@H]1O [VD3, 1α,25-dihydroxyvitamin D3]

FD4 apparent membrane permeability coefficient (Papp) (hiPS-SIECs monolayer [6]): increased | LY apparent membrane permeability coefficient (Papp) (hiPS-SIECs monolayer [6]): increased
Molecule: CCCCCCCCCC(=O)O [C10, capric acid]
TEER value (hiPS-SIECs monolayer [5]): significantly decreased

The next lines start with the molecule.

Molecule: C[C@@H]1C[C@H]2[C@@H]3CCC4=CC(=O)C=C[C@]4(C)[C@@]3(F)[C@@H](O)C[C@]2(C)[C@@]1(O)C(=O)CO [dexamethasone]
maturation in neonatal rat small intestinal epithelial cells [3]: promotes

Molecule: IGF-1: insulin-like growth factor 1, used at 20 ng/mL
proliferation of small intestinal epithelial cells [4]: promotes

Molecule: O=C1Nc2cc(Br)ccc2/C1=C1/Nc2ccccc2/C1=N\O [BIO, (2′Z,3′E)-6-bromoindirubin-3′-oxime]
effect on JAK/STAT signals (off-target) (JAK/STAT signals): inhibition

Molecule: O=C1NC(=O)C(c2cnc3ccccn23)=C1c1cn2c3c(cc(F)cc13)CN(C(=O)N1CCCCC1)CC2 [LY2090314]
expression level of hepatic progenitor marker AFP [7, 10]: lower | expression level of intestinal progenitor cell marker CDX2 [7, 10]: increased | expression level of pancreatic progenitor cell marker PDX1 [7, 10]: lower | expression levels of CDX2, concentration dependence ([7]; 1-20 nM, relative to DMSO-treated cells): increased in a concentration-dependent manner | CDX2 protein expression level [8]: increased | percentage of CDX2-positive cells (FACS) [9]: approximately 50%
